Reference: patent US8222417B2, “Compound having 11β-HSD1 inhibitory activity” (Taisho Pharmaceutical Co., Ltd, priority 2007, dated 2012)

molecular target: T1, 11β-HSD1 (Homo sapiens, UniProt P28845); experiment: 11β-HSD1 inhibition test (human liver microsome, HTRF cortisol detection); assay type: biochemical; settings: human liver microsome as enzyme source; cortisone 100 nM; 20° C., 80 minutes; generated cortisol quantified by HTRF
T1 construct: human liver microsome (enzyme source, Tissue Transformation Technologies); tissue Tissue Transformation Technologies; host or cells: human liver microsomes
Description: Test Example [11β-HSD1 Inhibition Test]
Test Compounds were Evaluated as Follows.
11β-HSD1 enzyme reaction was performed in a reaction solution of 100 μl total volume using 96-well polypropylene microplates. The reaction solution was prepared in 30 mM Tris-HCl (pH 7.4)/1 mM EDTA buffer to contain NADPH at a final concentration of 100 μM, G6P at a final concentration of 1 mM, human liver microsome (enzyme source, Tissue Transformation Technologies) at a final concentration of 0.8 μg/ml and 10 μl of a test compound dissolved in DMSO. The enzyme reaction was initiated by addition of cortisone at a final concentration of 100 nM. After incubation at 20° C. for 80 minutes, 10 μl of 1 mM 18β glycyrrhetinic acid, which is a non-specific inhibitor, was added to stop the reaction. Next, the amount of generated cortisol was quantified with a detection kit (Sceti Medical Labo K.K., Japan) according to the HTRF (Homogeneous Time-Resolved Fluorescence) method. This system detects fluorescence resonance energy transfer between europium-labeled anti-cortisol antibody and XL665-labeled cortisol. Upon addition of unlabeled cortisol, binding signals will be attenuated due to competitive reaction. Based on this principle, the amount of cortisol generated by the enzyme reaction was evaluated using a standard curve obtained from samples with known concentrations of cortisol included in the kit. The HTRF reaction was performed in 96-well half area microplates as follows: to 30 μl enzyme reaction solution, an anti-cortisol antibody solution (15 μl) and an XL665-labeled cortisol solution (15 μl) included in the kit were added, and the plates were vortexed at room temperature for 1 hour and further allowed to stand at 20° C. for 1 hour. 40 μl of this reaction solution was transferred to 384-well microplates and measured for its fluorescence. 18β Glycyrrhetinic acid was added to wells before initiation of the enzyme reaction and the amount of cortisol generated in these wells was used as a background level. Test compounds were evaluated using serial dilutions at a common ratio of 3 to calculate their IC50 values, assuming that the amount of cortisol generated in wells containing no test compound was set to 100% enzyme activity.

T1 sequence (P28845 whole entry): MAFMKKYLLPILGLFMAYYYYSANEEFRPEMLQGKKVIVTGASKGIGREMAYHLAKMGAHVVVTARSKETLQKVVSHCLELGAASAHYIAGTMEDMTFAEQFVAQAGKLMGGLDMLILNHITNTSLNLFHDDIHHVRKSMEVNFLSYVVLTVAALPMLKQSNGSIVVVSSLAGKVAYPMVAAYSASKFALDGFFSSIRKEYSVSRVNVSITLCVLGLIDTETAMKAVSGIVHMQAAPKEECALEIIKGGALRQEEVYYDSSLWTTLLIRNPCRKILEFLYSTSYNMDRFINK

IC50 [nM] | Compound
8.3 | O=C(N[C@H]1C2CC3CC1C[C@](O)(C3)C2)N1CCc2ccccc21 [Compound A-6, N—[E-1-hydroxyadamantan-4-yl]-2,3-dihydro-1H-indole-1-carboxamide]
34.7 | CS(=O)(=O)[C@]12CC3CC(C1)[C@@H](NC(=O)N1CCOc4ccccc41)C(C3)C2 [Compound 41, N-(E-1-methylsulfonyladamantan-4-yl)-2,3-dihydro-4H-1,4-benzoxazine-4-carboxamide]
1.1 | O=C(N[C@H]1C2CC3CC1C[C@](O)(C3)C2)N1CCCc2cccc(F)c21 [Compound 4, 8-fluoro-N-(E-1-hydroxyadamantan-4-yl)-3,4-dihydroquinoline-1(2H)-carboxamide]
